# Source: patent publication US8722731B2, “Furanyl compounds and the use thereof” (NovoMedix, LLC, priority 2010, dated 2014)
# Read-outs that look alike come from different tables or passages of the source.
# Columns and labels:
# [1] = tested on: MCF-7; assay: IC50 cell-based assay, adherent cells, MCF-7; conditions: Homo sapiens, MCF7, Breast, ER+, 72 hours, read-out: IC50 of Compounds in Adherent Cell Types
# Procedure: (§1) In one embodiment, the IC50s of the compounds provided herein were determined in cell-based assays using adherent cells. In one embodiment, the activity of the compounds provided herein were determined in a cell-based assay using the triple negative breast cancer cell line MDA-MB-468. In one embodiment, the adherent cells used in the cell-based assays may be a cell type selected from Table 1. In one embodiment, the cell-based assay may be carried out as provided herein. On day 0, cells were seeded at 20,000 cells per well in 100 µL of media into individual wells of a 96-well tissue culture plate. The next day, compounds were diluted to twice the desired final concentration and added in 100 µL of media for a final volume of 200 μL. Standard solutions for each compound were prepared at 1000× concentration in DMSO. The highest concentration was 30 mM. Serial 1:1 dilutions were made from there for a 6- or 9-point curve (e.g., 30 mM, 15 mM, 7.5 mM, etc). Compounds were then diluted 1:500 in media, and 100 µL of the resulting solution was added to each well for a final dilution of 1:1000. Each concentration of compound was tested in triplicate. Cells were incubated at 37° C. with 5% CO2. After 72 hours, 20 μL of CellTiter 96 Aqueous One Solution Cell Proliferation Assay (Promega) was added to each well. Cells were placed back in the incubator, and the absorbance at 490 nm was read after 2-3 hours. The concentration of compound that decreased the number of metabolically active cells by 50% was determined and reported as the IC50. “Percent Viability” was determined by subtracting the average background value (media only) and expressed as a ratio to the average value obtained from cells treated with only DMSO.
# [2] = tested on: Nalm-6; assay: IC50 cell-based assay, suspension cells, Nalm-6; conditions: Homo sapiens, Leukemia, B-ALL, read-out: IC50 of Compounds in Suspension Cell Types
# Procedure: as §1
# (§2) In one embodiment, the IC50s of the compounds provided herein were determined in cell-based assays using suspension cells. In one embodiment, the activity of the compounds provided herein were determined in a cell-based assay using the JeKo-1 cell line (mantle cell lymphoma) or the Pfeiffer cell line (diffuse large B-cell lymphoma). In one embodiment, the suspension cells used in the cell-based assays may be a cell type selected from Table 2. Assays with suspension cells were similar except that 40,000-60,000 cells were added to each well and compounds were added immediately after cell plating.
# [3] = tested on: Z138, JeKo-1; assay: IC50 cell-based assay, suspension cells, Z138, JeKo-1; conditions: Lymphoma, Mantle cell, read-out: IC50 of Compounds in Suspension Cell Types
# Procedure: as §1, §2
# [4] = tested on: HL-60; assay: IC50 cell-based assay, suspension cells, HL-60; conditions: Homo sapiens, Leukemia, AML, read-out: IC50 of Compounds in Suspension Cell Types
# Procedure: as §1, §2
# [5] = tested on: Pfeiffer; assay: IC50 cell-based assay, suspension cells, Pfeiffer; conditions: Homo sapiens, Lymphoma, Diffuse large b-cell, read-out: IC50 of Compounds in Suspension Cell Types
# Procedure: as §1, §2
# [6] = tested on: Panc-1; assay: IC50 cell-based assay, adherent cells, Panc-1; conditions: Homo sapiens, Pancreas, epitheloid carcinoma, 72 hours, read-out: IC50 of Compounds in Adherent Cell Types
# Procedure: as §1
# [7] = tested on: MDA-MB-231; assay: IC50 cell-based assay, adherent cells, MDA-MB-231; conditions: Homo sapiens, Breast, triple neg, 72 hours, read-out: IC50 of Compounds in Adherent Cell Types
# Procedure: as §1
# [8] = tested on: SKBR-3; assay: IC50 cell-based assay, adherent cells, SKBR-3; conditions: Homo sapiens, SK-BR-3, Breast, ER−, 72 hours, read-out: IC50 of Compounds in Adherent Cell Types
# Procedure: as §1
# [9] = tested on: SupB15; assay: IC50 cell-based assay, suspension cells, SupB15; conditions: Homo sapiens, SUP-B15, Leukemia, B-ALL (Philadelphia chromosome+), read-out: IC50 of Compounds in Suspension Cell Types
# Procedure: as §1, §2
# [10] = tested on: triple negative breast cancer cell line MDA-MB-468; assay: IC50 cell-based assay, adherent cells, MDA-MB-468; conditions: Homo sapiens
# Procedure: as §1
# The IC50s of the compounds provided herein were determined in cell-based assay using triple negative breast cancer cell line MDA-MB-468.
# [11] = tested on: MDA-MB-361; assay: IC50 cell-based assay, adherent cells, MDA-MB-361; conditions: Homo sapiens, Breast, Brain met Her2-neu + ER +, 72 hours, read-out: IC50 of Compounds in Adherent Cell Types
# Procedure: as §1
# [12] = tested on: Kg1a; assay: IC50 cell-based assay, suspension cells, Kg1a; conditions: Homo sapiens, KG-1a, Leukemia, AML, read-out: IC50 of Compounds in Suspension Cell Types
# Procedure: as §1, §2
# [13] = tested on: MHH-CALL-4; assay: IC50 cell-based assay, suspension cells, MHH-CALL-4; conditions: MHHCALL4, Leukemia, B-ALL (CRLF2 Hi), read-out: IC50 of Compounds in Suspension Cell Types
# Procedure: as §1, §2
# [14] = tested on: 1937; assay: IC50 cell-based assay, adherent cells, 1937; conditions: Breast, triple neg, 72 hours, read-out: IC50 of Compounds in Adherent Cell Types
# Procedure: as §1
# [15] = tested on: Nalm-6-VR; assay: IC50 cell-based assay, suspension cells, Nalm-6-VR; conditions: Leukemia, B-ALL, Vincristine resistant, read-out: IC50 of Compounds in Suspension Cell Types
# Procedure: as §1, §2
# [16] = tested on: A431; assay: IC50 cell-based assay, adherent cells, A431; conditions: Homo sapiens, A-431, Skin, epidermoid carcinoma, 72 hours, read-out: IC50 of Compounds in Adherent Cell Types
# Procedure: as §1
# [17] = tested on: RT-4; assay: IC50 cell-based assay, adherent cells, RT-4; conditions: Homo sapiens, Bladder, papilloma, 72 hours, read-out: IC50 of Compounds in Adherent Cell Types
# Procedure: as §1
# [18] = tested on: A549; assay: IC50 cell-based assay, adherent cells, A549; conditions: Homo sapiens, Lung, NSCLC, 72 hours, read-out: IC50 of Compounds in Adherent Cell Types
# Procedure: as §1
# [19] = tested on: U87-MG; assay: IC50 cell-based assay, adherent cells, U87-MG; conditions: Homo sapiens, U-87 MG, Brain, glioblastoma, 72 hours, read-out: IC50 of Compounds in Adherent Cell Types
# Procedure: as §1
# [20] = tested on: FaDu; assay: IC50 cell-based assay, adherent cells, FaDu; conditions: Homo sapiens, Pharynx, squamous cell, 72 hours, read-out: IC50 of Compounds in Adherent Cell Types
# Procedure: as §1
# [21] = tested on: AsPC-1; assay: IC50 cell-based assay, adherent cells, AsPC-1; conditions: Homo sapiens, ASPC1, Pancreas, carcinoma, 72 hours, read-out: IC50 of Compounds in Adherent Cell Types
# Procedure: as §1
# [22] = tested on: OVCAR-3; assay: IC50 cell-based assay, adherent cells, OVCAR-3; conditions: Homo sapiens, Ovarian, adenocarcinoma, 72 hours, read-out: IC50 of Compounds in Adherent Cell Types
# Procedure: as §1
# [23] = tested on: Hep-G2; assay: IC50 cell-based assay, adherent cells, Hep-G2; conditions: Homo sapiens, HepG2, Liver, hepatocellular carcinoma, 72 hours, read-out: IC50 of Compounds in Adherent Cell Types
# Procedure: as §1
# [24] = tested on: H-460; assay: IC50 cell-based assay, adherent cells, H-460; conditions: Homo sapiens, NCI-H460, Lung, large cell carcinoma, 72 hours, read-out: IC50 of Compounds in Adherent Cell Types
# Procedure: as §1
# [25] = tested on: HT-29; assay: IC50 cell-based assay, adherent cells, HT-29; conditions: Homo sapiens, Colorectal, adenocarcinoma, 72 hours, read-out: IC50 of Compounds in Adherent Cell Types
# Procedure: as §1
# [26] = tested on: SK-MEL-28; assay: IC50 cell-based assay, adherent cells, SK-MEL-28; conditions: Homo sapiens, Melanoma, 72 hours, read-out: IC50 of Compounds in Adherent Cell Types
# Procedure: as §1
# [27] = tested on: Caki-1; assay: IC50 cell-based assay, adherent cells, Caki-1; conditions: Homo sapiens, Kidney, clear cell carc., skin met, 72 hours, read-out: IC50 of Compounds in Adherent Cell Types
# Procedure: as §1
# [28] = MDA-MB-468, Breast, triple neg, 72 hours, Table 1, read-out: IC50 of Compounds in Adherent Cell Types
# [29] = MDA-MB-468 cells, Table 3, read-out: IC50 of Compounds in MDA-MB-468 Cells
SMILES,IC50 [1] [µM],IC50 [2] [µM],IC50 [3] [µM],IC50 [4] [µM],IC50 [5] [µM],IC50 [6] [µM],IC50 [7] [µM],IC50 [8] [µM],IC50 [9] [µM],"IC50 [10, 28] [µM]","IC50 [10, 29] [µM]",IC50 [11] [µM],IC50 [12] [µM],IC50 [13] [µM],IC50 [14] [µM],IC50 [15] [µM],IC50 [16] [µM],IC50 [17] [µM],IC50 [18] [µM],IC50 [19] [µM],further results
"Cc1oc(-c2ccccc2)cc1C(=O)Nc1cc(C(F)(F)F)cc(C(F)(F)F)c1 [Compound 4, 2-Methyl-5-phenyl-furan-3-carboxylic acid (3,5-bis-trifluoromethyl-phenyl)-amide]",> 20,> 20,> 20,> 20,> 20,> 20,> 20,> 20,> 20,10 to 20,> 30,> 20,> 20,> 20,> 20,–,–,–,–,–,–
"O=C(Nc1cc(F)cc(C(F)(F)F)c1)c1cc(-c2ccc(Br)cc2)oc1C(F)(F)F [Compound 7, 5-(4-Bromo-phenyl)-2-trifluoromethyl-furan-3-carboxylic acid (3-fluoro-5-trifluoromethyl-phenyl)-amide]",5 to 10,5 to 10,5 to 10,5 to 10,10 to 20,> 20,10 to 20,5 to 10,5 to 10,< 5,5,> 20,10 to 20,10 to 20,5 to 10,10 to 20,10 to 20,> 20,> 20,> 20,IC50 [20]: 5 to 10 µM; IC50 [21]: 10 to 20 µM; IC50 [22]: 5 to 10 µM; IC50 [23]: 10 to 20 µM; IC50 [24]: > 20 µM; IC50 [25]: > 20 µM; IC50 [26]: 10 to 20 µM
"O=C(Nc1cc(C(F)(F)F)cc(C(F)(F)F)c1)c1cc(-c2ccc(Br)cc2)oc1C(F)(F)F [Compound 3, 5-(4-Bromophenyl)-N-(3,5-bistrifluoromethylphenyl)-2-trifluoromethylfuran-3-carboxamide]",5 to 10,5 to 10,< 5,< 5,< 5,5 to 10,5 to 10,< 5,< 5,< 5,1.5,< 5,< 5,< 5,< 5,< 5,5 to 10,> 20,< 5,5 to 10,IC50 [20]: < 5 µM; IC50 [21]: 5 to 10 µM; IC50 [22]: < 5 µM; IC50 [23]: 5 to 10 µM; IC50 [24]: 10 to 20 µM; IC50 [25]: 10 to 20 µM; IC50 [26]: 5 to 10 µM; IC50 [27]: 5 to 10 µM
"COc1ccc(-c2cc(C(=O)Nc3cc(C(F)(F)F)cc(C(F)(F)F)c3)c(C(F)(F)F)o2)cc1 [Compound 8, 5-(4-Methoxy-phenyl)-2-trifluoromethyl-furan-3-carboxylic acid (3,5-bis-trifluoromethyl-phenyl)-amide]",–,< 5,–,–,–,–,–,–,–,< 5,2,–,–,–,–,–,–,–,–,–,–

# The next lines start with results.
IC50 [1] [µM],IC50 [2] [µM],IC50 [3] [µM],IC50 [4] [µM],IC50 [5] [µM],IC50 [6] [µM],IC50 [7] [µM],IC50 [8] [µM],IC50 [9] [µM],"IC50 [10, 28] [µM]","IC50 [10, 29] [µM]",IC50 [11] [µM],IC50 [12] [µM],IC50 [13] [µM],IC50 [14] [µM],IC50 [15] [µM],IC50 [16] [µM],IC50 [17] [µM],IC50 [18] [µM],IC50 [19] [µM],SMILES,further results
< 5,< 5,< 5,< 5,5 to 10,< 5,5 to 10,< 5,< 5,< 5,4,10 to 20,5 to 10,5 to 10,5 to 10,< 5,> 20,> 20,5 to 10,10 to 20,"O=C(Nc1cc(F)cc(C(F)(F)F)c1)c1cc(-c2ccc(Cl)cc2)oc1C(F)(F)F [Compound 5, 5-(4-Chloro-phenyl)-2-trifluoromethyl-furan-3-carboxylic acid (3-fluoro-5-trifluoromethyl-phenyl)-amide]",IC50 [20]: 5 to 10 µM; IC50 [21]: 5 to 10 µM; IC50 [22]: 5 to 10 µM; IC50 [23]: 10 to 20 µM; IC50 [24]: > 20 µM; IC50 [25]: > 20 µM; IC50 [26]: 5 to 10 µM; IC50 [27]: 5 to 10 µM
5 to 10,< 5,5 to 10,5 to 10,10 to 20,5 to 10,5 to 10,< 5,5 to 10,< 5,4,10 to 20,10 to 20,10 to 20,5 to 10,< 5,5 to 10,> 20,5 to 10,10 to 20,"O=C(Nc1cc(F)cc(C(F)(F)F)c1)c1cc(-c2ccccc2)oc1C(F)(F)F [Compound 6, 5-Phenyl-2-trifluoromethyl-furan-3-carboxylic acid (3-fluoro-5-trifluoromethyl-phenyl)-amide]",IC50 [20]: 5 to 10 µM; IC50 [21]: 5 to 10 µM; IC50 [22]: 5 to 10 µM; IC50 [23]: > 20 µM; IC50 [24]: > 20 µM; IC50 [25]: > 20 µM; IC50 [26]: 5 to 10 µM; IC50 [27]: 5 to 10 µM
